Columns and labels:
[1] = HLM incubation, decreasing thereafter
[2] = BTX-2 5 μM, 60 min incubations with HLM and fish microsomes
[3] = GSH conjugation of BTX-2 with deactivated RSN2 microsomes and 100 μM GSH; format: in vitro ADME, Lutjanus campechanus
[4] = Chemical GSH conjugation of BTX-2 without microsomes; format: physicochemical
[5] = GSH conjugation of BTX-2 with active RSN2 microsomes and 100 μM GSH; format: in vitro ADME, Lutjanus campechanus
[6] = RSN1 control without NADPH regeneration system

41,43-dihydro-BTX-2 [Compound 2b]
time at which the metabolite reached a maximum [1]: about 15 min

41,43-dihydro-BTX-B5 [Compound 5d]
occurrence of the metabolite across microsomal incubations [2]: only produced by HLM

41,43-dihydro-BTX-B5 [Compound 5e]
occurrence of the metabolite across microsomal incubations [2]: only produced by HLM

A-ring hydrolyzed BTX-3 [Compound 6a]
occurrence of the metabolite across microsomal incubations [2]: produced in all fish microsomes and in HLM

BTX-2-GSH [Compound 12]
formation rate of BTX-2-GSH [3]: 0.46 min⁻¹
formation rate of BTX-2-GSH [4]: 0.46 min⁻¹
formation rate of BTX-2-GSH [5]: 0.18 min⁻¹

BTX-9 [Compound 3]
metabolite formation where the NADPH regeneration system was excluded [6]: not formed

Hydroxyl BTX-2 (rings A-E) [Compound 4b]
occurrence of the metabolite across microsomal incubations [2]: occurred mainly in the two Lutjanid species

— publication PMC10362319 (Toxicon: X, 2023)
